Laboratory results from US20070077583A1, “Alpha enolase-directed diagnostics and therapeutics for cancer and chemotherapeutic drug resistance” (Aurelium BioPharma, Inc., priority 2005, published 2007).
Entries after “also recorded” stand apart in the source; their conditions may differ. Read-outs that look alike come from different tables or passages of the source.

How the values were obtained:
MCF-7 cells = assay: MTT cytotoxicity assay, MCF-7 cells transfected with α-enolase siRNA; format: cell-based, human
Method: For a typical siRNA transfection, 1 nmole of the annealed siRNA duplex was mixed with 1.4 ml of Opti-MEM reagent (Invitrogen). In another tube, […] of Oligofectamine reagent (Invitrogen, Carlsbad, Calif.) is mixed with […] of Opti-MEM. The two solutions are combined and mixed gently by inversion and incubated for 20 min. at RT. The resulting solution is added to the cultured cells drop by drop in a 10 cm dish (cells are approximately 40-50% confluent). The next day the transfected cells were trypsinized and seeded in 6 or 96-well plates and further incubated for the indicated amount of time (assay dependent) before further analysis.
To evaluate the effect of α-enolase depletion on the chemosensitivity of cells to cytotoxic agents, MTT assays were performed in breast adenocarcinoma MCF-7 cells transfected with α-enolase specific siRNAs. […] The predicted EC50 values (the effective dose of a compound responsible for a positive effect half-way between baseline and maximum net impact) for the α-enolase-depleted cells are shown in Table 3. Similarly, results using other chemotherapeutic drugs are also shown in the table indicating the sensitivity of breast cancer tissue to α-enolase depletion.

A549 cells [1] = assay: MTT cytotoxicity assay, A549 cells transfected with α-enolase siRNA
Method: Small interfering RNA transfected cells were seeded in triplicate into 96-well plates at 5×10^3 cells/well 48 hrs post-transfection. The cells were incubated for an additional 16-24 hrs before they were exposed to increasing concentrations of cytotoxic drugs. […] Appropriate dilutions were made in the respective media for each cell line. Following addition of drugs, incubation was continued for an additional 72 hrs. Twenty-five ml of MTT dye (5 mg/ml) were added into each well and the plate was further incubated at 37° C. for 4 hrs. The dye was solubilized with 10% Triton X-100, 0.01 N HCl and further incubated at 37° C. in the dark for 30 min. Cell viability was determined by measure of absorption at 570 nm in a Wallac multiwell plate reader (PerkinElmer, Inc., Boston, Mass.). The averages of triplicate wells were plotted using the Prism software (GraphPad Software, Inc., San Diego, Calif.).
To investigate if α-enolase is broadly involved in mediating drug resistance to microtubule targeting agents, non-small cell lung cancer cell lines A549 and H460, respectively, were transfected with α-enolase siRNA and enolase expression and viability were assessed.

H460 cells = assay: MTT cytotoxicity assay, H460 cells transfected with α-enolase siRNA; format: cell-based, human
Method: To establish the effectiveness of α-enolase silencing on other cancer cell types, H460 non-small cell lung cancer cells were challenged with a chemotherapeutic drug, MTT cytotoxicity assays were carried out and survival curves plotted as shown in FIG. 17.

PC-3 cells = assay: MTT cytotoxicity assay, PC-3 cells transfected with α-enolase siRNA; format: cell-based; conditions: for EC50: Homo sapiens
MDA-435 cells = assay: cells; format: cell-based, human; conditions: MDA-435 cells; for EC50: Homo sapiens, MDA435
Method: Similar tests utilizing α-enolase siRNA were performed on MDA-435 breast adenocarcinoma cells. Chemosensitivity to various drugs was determined for the MDA-435 cells as described above.

CaOV3 cells = assay: MTT cytotoxicity assay, CaOV3 cells transfected with α-enolase RNAi; format: cell-based, human; conditions: for EC50: Homo sapiens, 72 hours post transfection
From the text: These observations were expanded by targeting α-enolase in the ovarian cancer cell line, CaOV3.

α-enolase = assay: Western blot of α-enolase protein expression after siRNA transfection; format: cell-based, human; conditions: MCF-7 cells
Method: Western blot analysis utilizing anti-α-enolase antibodies was performed on MOLT4 cell extracts fractionated on SDS-PAGE (FIG. 3). Cells extract were prepared according to the protocol detailed in Example 1. […] Resolved proteins were electrophoretically transferred onto nitrocellulose membranes (Hybond, Amercham Pharmacia Biotech) for 1 hour. […] After blocking the membranes with 5% non-fat milk in 1×PBS overnight at 4° C., all antibody-binding reactions were performed in 5% non-fat milk in 1×PBS for 2 hours at room temperature for primary antibodies and for 1 hour for secondary antibodies coupled to HRP. The signal was detected by the Supersignal west Pico chemiluminescent substrate (Pierce, Rockford, Ill., USA). Two polyclonal antibodies against α-enolase were used: a goat antibody against human α-enolase (Santa Cruz Biotechology, Inc., Santa Cruz, Calif.); rabbit polyclonal antibody against human α-enolase (NNE) (MorphoSys AG, Munich, Del.). Membranes were subsequently blotted with anti-GAPDH (Novus Biologicals, Inc., Littleton, Colo.) or anti-prohibitin mouse monoclonal antibody (Lab Vision Corp., Fremont, Calif.) as controls for protein loading. To establish the importance of α-enolase to the expression of the drug-resistant phenotype in cell lines, α-enolase expression was silenced using RNAi. Briefly, the following siRNA duplexes targeting the human α-enolase mRNA were designed and purchased either from Ambion (Austin, Tex.) or Invitrogen (Carlsbad, Calif.). […] [NT] ID NO: 2) targeting the mRNA sequence corresponding to nucleotides […] from the start of the transcript (Ref Seq ID number: NM-001428). […] In another tube, […] of Oligofectamine reagent (Invitrogen, Carlsbad, Calif.) is mixed with […] of Opti-MEM. The two solutions are combined and mixed gently by inversion and incubated for 20 min. at RT. […] The next day the transfected cells were trypsinized and seeded in 6 or 96-well plates and further incubated for the indicated amount of time (assay dependent) before further analysis.

A549 cells [2] = assay: Clonogenic assay, A549 cells; format: cell-based, human; conditions: A549 cells vs control vectors
SW-480 cells = assay: cells; format: cell-based, human; conditions: SW-480 cells; for EC50: Homo sapiens, SW480
Method: The colorectal adenocarcinoma cell line SW-480 was treated with α-enolase-directed siRNA using the procedures described above.

SKOV3 cells = assay: Cytotoxicity in α-enolase siRNA transfected SKOV3 cells; conditions: data not shown
[3] = Homo sapiens, MCF7, MCF-7 cells, control siRNA, 72 hrs drug, read-out: Control (EC50)
[4] = Homo sapiens, MCF7, MCF-7 cells, α-enolase specific siRNA, read-out: α-Enolase (EC50)
[5] = Homo sapiens, A549, read-out: Control (EC50)
[6] = Homo sapiens, A549, read-out: α-Enolase (EC50)
[7] = Homo sapiens, NCI-H460, control, read-out: Control (EC50)
[8] = Homo sapiens, NCI-H460, α-enolase specific siRNA, read-out: α-Enolase (EC50)
[9] = control, read-out: Control (EC50)
[10] = α-enolase specific siRNA, read-out: α-Enolase (EC50)
[11] = Eno-1 siRNA, read-out: Eno-1 (EC50)
[12] = Eno-1 stealth siRNA, read-out: Eno-1 ST (EC50)
[13] = control siRNA, read-out: Control (EC50)
[14] = mock transfection, read-out: Mock (EC50)
[15] = Caov-3, control, read-out: Control (EC50)
[16] = Caov-3, α-enolase specific RNAi, read-out: α-Enolase (EC50)

Compound | EC50 (MCF-7 cells; [3]) [nM] | EC50 (MCF-7 cells; [4]) [nM] | chemosensitivity of α-enolase-silenced cells (words) (A549 cells [1]; A549 cells) | EC50 (A549 cells [1]; [5]) [nM] | EC50 (A549 cells [1]; [6]) [nM] | viability of α-enolase-silenced cells under drug treatment vs control cells (H460 cells) | EC50 (H460 cells; [7]) [nM] | EC50 (H460 cells; [8]) [nM] | EC50 (PC-3 cells; [9]) [nM] | EC50 (PC-3 cells; [10]) [nM] | EC50 (MDA-435 cells; [11]) [nM] | EC50 (MDA-435 cells; [12]) [nM] | EC50 (MDA-435 cells; [13]) [nM] | EC50 (MDA-435 cells; [14]) [nM] | further results
COc1cc([C@@H]2c3cc4c(cc3[C@@H](O[C@@H]3O[C@@H]5CO[C@@H](C)O[C@H]5[C@H](O)[C@H]3O)[C@H]3COC(=O)[C@H]23)OCO4)cc(OC)c1O [Etoposide] | 16100 | 27000 | increased sensitivity | 20500 | 10100 | decreased the viability | 5370 | 1910 | – | – | – | – | – | – | –
COc1cccc2c1C(=O)c1c(O)c3c(c(O)c1C2=O)C[C@@](O)(C(=O)CO)C[C@@H]3O[C@H]1C[C@H](N)[C@H](O)[C@H](C)O1 [Doxorubicin] | 90600 | 62600 | – | 289 | 297 | greatest decreases in viability | 119 | 30 | – | – | – | – | – | – | –
CC[C@]1(O)C[C@@H]2CN(CCc3c([nH]c4ccccc34)[C@@](C(=O)OC)(c3cc4c(cc3OC)N(C)[C@H]3[C@@](O)(C(=O)OC)[C@H](OC(C)=O)[C@]5(CC)C=CCN6CC[C@]43[C@@H]65)C2)C1 [Vinblastin] | – | – | enhanced chemosensitivity | 2.39 | 0.076 | decreased the viability | 3.09 | 1.54 | 0.0529 | 0.00553 | 0.872 | 0.917 | 0.709 | 1.04 | chemosensitivity of α-enolase-silenced cells (words) (A549 cells [1]; A549 cells, listed as vinblastine): significant shifts in their chemosensitivities; combination with enolase siRNA in cell killing (PC-3 cells; listed as vinblastine): synergistic; also recorded: augment PC-3 cell killing; decrease of chemotherapeutic drug resistance by α-enolase-directed siRNA vs mock siRNA (CaOV3 cells): 8 fold; EC50 (CaOV3 cells; [15]): 0.022 nM; EC50 (CaOV3 cells; [16]): 0.00349 nM
N.N.[Cl][Pt][Cl] [Cisplatinum] | – | – | – | – | – | decreased the viability | – | – | – | – | – | – | – | – | EC50 (MCF-7 cells; MCF-7 cells, control siRNA, 72 hrs drug, read-out: Control (EC50)): 118000 nM; EC50 (MCF-7 cells; MCF-7 cells, α-enolase specific siRNA, read-out: α-Enolase (EC50)): 92000 nM; EC50 (A549 cells [1]; read-out: Control (EC50), A549 cells, control siRNA): 327000 nM; EC50 (A549 cells [1]; read-out: α-Enolase (EC50), A549 cells, α-enolase specific siRNA): 218000 nM; EC50 (H460 cells; [9]): 44.4 nM; EC50 (H460 cells; [10]): 24 nM
VEGF-directed siRNA: chemically modified Stealth siRNA duplex targeting VEGF, SEQ ID NO: 8 and 9 (chain 1 ACAAAUGUGAAUGCAGACCAAAGAA; chain 2 UUCUUUGGUCUGCAUUCACAUUUGU; chemically modified Stealth duplex, pattern not given here) | – | – | – | – | – | – | – | – | – | – | – | – | – | – | decrease of α-enolase expression (α-enolase): ~100%
CC(=O)O[C@@]12CO[C@@H]1C[C@H](O)[C@@]1(C)C(=O)[C@H](O)C3=C(C)[C@@H](OC(=O)[C@H](O)[C@@H](NC(=O)OC(C)(C)C)c4ccccc4)C[C@@](O)([C@@H](OC(=O)c4ccccc4)[C@H]21)C3(C)C [Docetaxel] | 73.5 | 36.5 | enhanced chemosensitivity; also recorded: significant shifts in their chemosensitivities | 7.01 | 0.351 | decreased the viability | 1.36 | 0.663 | 0.348 | 0.0547 | 0.182 | 0.124 | 0.645 | 0.226 | sensitivity of α-enolase-silenced cells (MDA-435 cells): Increases in sensitivity
CC[C@]1(O)C[C@H]2CN(CCc3c([nH]c4ccccc34)[C@@](C(=O)OC)(c3cc4c(cc3OC)N(C=O)[C@H]3[C@@](O)(C(=O)OC)[C@H](OC(C)=O)[C@]5(CC)C=CCN6CC[C@]43[C@@H]65)C2)C1 [Vincristine] | 163000 | 12600 | – | 83.3 | 20 | decreased the viability | 4.96 | 2.03 | 3400 | 1690 | 0.375 | 0.324 | 0.246 | 0.667 | sensitivity of α-enolase siRNA cells in clonogenic assay (A549 cells [2]): more sensitive; IC50 (MCF-7 cells; Homo sapiens, MCF7, MCF-7 cells, from MTT experiments): 0.25 nM; sensitivity of α-enolase silenced cells (MCF-7 cells; MCF-7 cells): substantial increase in their sensitivity; IC10 (MCF-7 cells; MCF-7 cells, from MTT experiments): 0.005 nM; EC50 lower in α-enolase-depleted cells vs control siRNA treated cells (MCF-7 cells; MCF-7 cells, on average): 12 fold; chemosensitivity of α-enolase-silenced cells (words) (A549 cells [1]; A549 cells, listed as vincristin): significant shifts in their chemosensitivities; chemosensitivity of α-enolase-silenced cells (words) (A549 cells [1]; A549 cells, listed as vincristine): enhanced chemosensitivity; EC50 (SW-480 cells; [9]): 45.8 nM; EC50 (SW-480 cells; [10]): 0.221 nM; more sensitive, enolase-depleted vs mock transfected cells (SW-480 cells): approximately 210 times; chemosensitivity of α-enolase-depleted cells (words) (SW-480 cells; listed as vincristin): greater chemosensitivity; chemosensitivity of α-enolase-depleted cells (words) (SW-480 cells; listed as vincristine): greatly enhanced chemosensitivity; decrease of chemotherapeutic drug resistance by α-enolase-directed siRNA vs mock siRNA (CaOV3 cells): 6 fold; EC50 (CaOV3 cells; [15]): 0.084 nM; EC50 (CaOV3 cells; [16]): 0.0108 nM; cytotoxic effect in α-enolase-depleted cells (SKOV3 cells): enhanced cytotoxic effect
O=C1c2c(O)ccc(O)c2C(=O)c2c(NCCNCCO)ccc(NCCNCCO)c21 [Mitoxantrone] | 8680 | 7820 | increased sensitivity | 136 | 88.8 | decreased the viability | 224 | 70.8 | – | – | – | – | – | – | –
N[C@@H](Cc1ccc(N(CCCl)CCCl)cc1)C(=O)O [Melphalan] | – | – | – | – | – | – | – | – | – | – | – | – | – | – | EC50 (MCF-7 cells; Homo sapiens, MCF7, 72 h, read-out: Control (EC50)): 14700 nM; EC50 (MCF-7 cells; Homo sapiens, MCF7, read-out: α-Enolase (EC50)): 11500 nM
